Series [1] in a line: Particle size distribution, dry dispersion laser diffraction (Sympatec). The series is classed as physicochemical. To be noted: for D10 / D25 / D50 / D75 / D90 / D95: in µm (unit assumed); for PSD X10 / PSD X50 / PSD X90: spiral jet mill, JetPharma. The protocol:
Particle size of agglomeration was identified as playing a primary role in the release rate and dissolution and variability in the blend uniformity and content uniformity of the tablet formulations. In order to obtain an appropriate particle size distribution (PSD), milling of obeticholic acid was investigated. The particle size of the formulations was reduced using comilling and jet milling to improve its dissolution release profile. Particle size analysis was performed using a dry dispersion method and analyzed by laser diffraction using Sympatec equipment.
Particle size distribution was assessed using a dry dispersion method analyzed by laser diffraction using a Sympatec Laser Helos/KF-Magic F71000 with Rodos Dispersing Unit. The OCA sample (0.5 g sample) was tested as a dry powder. The parameters for the validated particle size analysis method are described below:
Apparatus: Sympatec Laser Helos/KF-Magic F71000 with Rodos Dispersing Unit, Vibri sampling unit with Sniffer rotation, Nilfisk exhaustion or equivalent.
Dispersing principle: Dry.

The nature of the next series: Surface area by BET. The format is physicochemical. Here is the method:
The impact of jet-milling on API particle size and surface area is detailed in Table 4-1 and Table 4-2, respectively. Surface area was tested per a BET (Brunauer, Emmett, and Teller theory). The BET method for analyzing surface area is based on adsorption of gas on a surface. The amount of gas adsorbed at a given pressure allows a determination of the surface area.

Setting [2] is: Before jet-milling (unmicronized).

Each structure is given as a SMILES string. “And” between values parts separate entries of the source, which are not always exact repeats. Equal entries are not always repeated.

As to `CC[C@H]1[C@@H](O)[C@@H]2[C@H](CC[C@]3(C)[C@@H]([C@H](C)CCC(=O)O)CC[C@@H]23)[C@@]2(C)CC[C@@H](O)C[C@@H]12` [Comilled with 0.46 mm screen], in series [1], the D10 amounted to 5.7, the D25 stood at 122.9, the D50 is 217.5 and the D75 worked out at 283.0. Moreover, in series [1], the D90 was found to be 335.1 and the D95 is 360.3.
`CC[C@H]1[C@@H](O)[C@@H]2[C@H](CC[C@]3(C)[C@@H]([C@H](C)CCC(=O)O)CC[C@@H]23)[C@@]2(C)CC[C@@H](O)C[C@@H]12` [Comilled with 0.61 mm screen]: in series [1], the D10 was 5.5 and 4.1; the D25 was 106.6 and 102.2; the D50 was 223.2 and 263.1; the D75 is 320.8 and 351.0. Moreover, in series [1], the D90 was 393.8 and 410.9; the D95 is 429.8 and 447.9.
For the molecule `CC[C@H]1[C@@H](O)[C@@H]2[C@H](CC[C@]3(C)[C@@H]([C@H](C)CCC(=O)O)CC[C@@H]23)[C@@]2(C)CC[C@@H](O)C[C@@H]12` [Comilled with 1.14 mm screen], in series [1], the D10 was determined as 7.9, the D25 is recorded as 73.9, the D50 came to 239.3 and the D75 amounted to 340.8. In series [1], this molecule displayed a D90 of 412.0 and a D95 of 452.7.
Take `CC[C@H]1[C@@H](O)[C@@H]2[C@H](CC[C@]3(C)[C@@H]([C@H](C)CCC(=O)O)CC[C@@H]23)[C@@]2(C)CC[C@@H](O)C[C@@H]12` [JP1307001]: in series [1], the “PSD X10” value is listed as “X10: 1 μm”, the “PSD X50” value is reported as “X50: 5 μm” and the “PSD X90” value is on record as “X90: 20 μm”.
For `CC[C@H]1[C@@H](O)[C@@H]2[C@H](CC[C@]3(C)[C@@H]([C@H](C)CCC(=O)O)CC[C@@H]23)[C@@]2(C)CC[C@@H](O)C[C@@H]12` [JP1408001], in that order: “X10: 1 μm”, “X50: 5 μm” and “X90: 19 μm”.
For `CC[C@H]1[C@@H](O)[C@@H]2[C@H](CC[C@]3(C)[C@@H]([C@H](C)CCC(=O)O)CC[C@@H]23)[C@@]2(C)CC[C@@H](O)C[C@@H]12` [JP1408002] the same measures were “X10: 1 μm”, “X50: 4 μm” and “X90: 14 μm”.
For `CC[C@H]1[C@@H](O)[C@@H]2[C@H](CC[C@]3(C)[C@@H]([C@H](C)CCC(=O)O)CC[C@@H]23)[C@@]2(C)CC[C@@H](O)C[C@@H]12` [JP1408003] the same measures were “X10: 1 μm”, “X50: 4 μm” and “X90: 15 μm”.
In series [1], `CC[C@H]1[C@@H](O)[C@@H]2[C@H](CC[C@]3(C)[C@@H]([C@H](C)CCC(=O)O)CC[C@@H]23)[C@@]2(C)CC[C@@H](O)C[C@@H]12` [Jet mill, classifier speed 2000 rpm] yielded a D16 of 2.3 µm, a D84 of 57.2 µm, a D99 of 97.9 µm and a D10 of 1.7. In addition, in series [1], the D50 came to 10.9 and the D90 is 69.3.
In series [1], `CC[C@H]1[C@@H](O)[C@@H]2[C@H](CC[C@]3(C)[C@@H]([C@H](C)CCC(=O)O)CC[C@@H]23)[C@@]2(C)CC[C@@H](O)C[C@@H]12` [Jet mill, classifier speed 4000 rpm] displayed a D16 of 1.6 µm, a D84 of 17 µm, a D99 of 36 µm and a D10 of 1.3. In series [1], this molecule gave a D50 of 3.8 and a D90 of 21.7.
As for `CC[C@H]1[C@@H](O)[C@@H]2[C@H](CC[C@]3(C)[C@@H]([C@H](C)CCC(=O)O)CC[C@@H]23)[C@@]2(C)CC[C@@H](O)C[C@@H]12` [Jet mill, classifier speed 5000 rpm], in series [1], the D16 was determined as 1.7 µm, the D84 turned out to be 15.2 µm, the D99 worked out at 55.8 µm and the D10 came to 1.3. Further, in series [1], the D50 worked out at 4.2 and the D90 came to 18.9.
With `CC[C@H]1[C@@H](O)[C@@H]2[C@H](CC[C@]3(C)[C@@H]([C@H](C)CCC(=O)O)CC[C@@H]23)[C@@]2(C)CC[C@@H](O)C[C@@H]12` [Jet mill, classifier speed 10000 rpm], in series [1], the D16 turned out to be 1.4 µm, the D84 came out at 4.7 µm, the D99 was 9 µm and the D10 turned out to be 1.1. Moreover, in series [1], the D50 amounted to 2.7 and the D90 was 5.6.
In series [1] (After jet-milling (micronized)), `CC[C@H]1[C@@H](O)[C@@H]2[C@H](CC[C@]3(C)[C@@H]([C@H](C)CCC(=O)O)CC[C@@H]23)[C@@]2(C)CC[C@@H](O)C[C@@H]12` [OCA Example # 1] displayed a Dv (10) of 0.7 µm, a Dv (50) of 6.1 µm, a Dv (90) of 18.8 µm and a Dv (99) of 30.8 µm. In series [1] (setting [2]), this molecule gave a Dv (10) of 2.6 µm, a Dv (50) of 26 µm, a Dv (90) of 162 µm and a Dv (99) of 419 µm. For the same molecule, the “Surface Area (m^2/kg)” value in “Surface area by BET” (After jet-milling (micronized)) stood at 3178 m^2/kg. The “Surface Area (m^2/kg)” value in the series “Surface area by BET” (setting [2]) stood at 1557 m^2/kg.
On to `CC[C@H]1[C@@H](O)[C@@H]2[C@H](CC[C@]3(C)[C@@H]([C@H](C)CCC(=O)O)CC[C@@H]23)[C@@]2(C)CC[C@@H](O)C[C@@H]12` [OCA Example # 2], for which, in series [1] (After jet-milling (micronized)), the Dv (10) was 0.6 µm, the Dv (50) came out at 4.4 µm, the Dv (90) came out at 17.8 µm and the Dv (99) came to 34.6 µm. In series [1] (setting [2]), this molecule showed a Dv (10) of 1.8 µm, a Dv (50) of 19 µm, a Dv (90) of 231 µm and a Dv (99) of 509 µm. In “Surface area by BET” (After jet-milling (micronized)), the “Surface Area (m^2/kg)” value came to 3848 m^2/kg. Moreover, the “Surface Area (m^2/kg)” value in “Surface area by BET” (setting [2]) amounted to 1854 m^2/kg.
In series [1] (After jet-milling (micronized)), `CC[C@H]1[C@@H](O)[C@@H]2[C@H](CC[C@]3(C)[C@@H]([C@H](C)CCC(=O)O)CC[C@@H]23)[C@@]2(C)CC[C@@H](O)C[C@@H]12` [OCA Example # 3] yielded a Dv (10) of 0.7 µm, a Dv (50) of 4.9 µm, a Dv (90) of 14.1 µm and a Dv (99) of 25.9 µm. In series [1] (setting [2]), this molecule gave a Dv (10) of 5.3 µm, a Dv (50) of 39 µm, a Dv (90) of 221 µm and a Dv (99) of 513 µm. Further, the “Surface Area (m^2/kg)” value in the series “Surface area by BET” (After jet-milling (micronized)) was found to be 3412 m^2/kg. In addition, the “Surface Area (m^2/kg)” value in “Surface area by BET” (setting [2]) amounted to 809 m^2/kg.
Take `CC[C@H]1[C@@H](O)[C@@H]2[C@H](CC[C@]3(C)[C@@H]([C@H](C)CCC(=O)O)CC[C@@H]23)[C@@]2(C)CC[C@@H](O)C[C@@H]12` [Unmilled API (no comil)]: in series [1], the D10 was 4.8 and 3.3; the D50 was 218.6 and 167.7; the D75 is 335.7 and 273.7; the D90 is 427.6 and 355.6. Moreover, the D95 in series [1] is 472.6 and 398.2. In series [1] (listed as Unmilled API), the D10 was 4.8, the D50 worked out at 218.6 and the D90 is reported as 427.6.

The values are drawn from patent US10758549B2, “Compositions of obeticholic acid and methods of use” (Intercept Pharmaceuticals, Inc., priority 2015, dated 2020).
